Usually MIC stands for the least concentration at which growth counts as inhibited.

The text below walks through data of ChEMBL document CHEMBL1811847, “Initial efforts toward the optimization of arylomycins for antibiotic activity” (2011).

≈ marks a conversion by molar mass, not a printed value.

Assay type in all cases: functional
Assay [1] has as its system Staphylococcus aureus. Kind of assay: Antibacterial activity against wild-type Staphylococcus aureus NCTC 8325 after 24 hrs by CLSI broth microdilution method. As to conditions: NCTC 8325, 24 h.
In assay [2] the test system is Escherichia coli. In words: Antibacterial activity against Escherichia coli MG1655 after 24 hrs by CLSI broth microdilution method. As to conditions: MG1655, 24 h. Background: Dilution methods test growth across graded concentrations, often in twofold steps.
Assay [3] deals with Pseudomonas aeruginosa. In words: Antibacterial activity against wild-type Pseudomonas aeruginosa PAO1 after 24 hrs by CLSI broth microdilution method. The note with it: PAO1, 24 h.
Assay [4] relates to Staphylococcus epidermidis. Kind of assay: Antibacterial activity against wild-type Staphylococcus epidermidis RP62A after 24 hrs by CLSI broth microdilution method.
In assay [5] the test system is Staphylococcus epidermidis. In words: Antibacterial activity against Staphylococcus epidermidis RP62A harboring spsB S29P mutant after 24 hrs by CLSI broth microdilution method.
The test system of assay [6] is Staphylococcus aureus. Kind of assay: Antibacterial activity against Staphylococcus aureus NCTC 8325 harboring lepB P29S mutant after 24 hrs by CLSI broth microdilution method. The note with it: NCTC 8325, 24 h.
In assay [7] the test system is Staphylococcus aureus. In words: Antibacterial activity against methicillin-resistant Staphylococcus aureus isolate USA300.
Assay [8] relates to Pseudomonas aeruginosa. Kind of assay: Antibacterial activity against Pseudomonas aeruginosa PAO1 harboring lepB P84L mutant after 24 hrs by CLSI broth microdilution method. As to conditions: PAO1, 24 h.
The test system of assay [9] is Escherichia coli. Kind of assay: Antibacterial activity against Escherichia coli MG1655 harboring lepB P84L mutant after 24 hrs by CLSI broth microdilution method. The note with it: MG1655, 24 h.

On to `CCCCCCCCCCCCCCCC(=O)N[C@@H](CO)C(=O)N[C@@H](C)C(=O)NCC(=O)N(C)[C@@H]1C(=O)N[C@@H](C)C(=O)N[C@H](C(=O)O)Cc2ccc(O)c(c2)-c2cc1ccc2O`, for which the MIC against Staphylococcus aureus [1], with Escherichia coli [2] and in the assay with Pseudomonas aeruginosa [3] was more than 64 µg/mL each time.
Turning to `C[C@@H]1NC(=O)[C@@H](N(C)C(=O)CNC(=O)[C@@H](C)NC(=O)[C@@H](CO)N(C)C(=O)Cc2ccc(-c3ccccc3)cc2)c2ccc(O)c(c2)-c2cc(ccc2O)C[C@@H](C(=O)O)NC1=O`, the MIC in [4] was 32 µg/mL (≈ 38.2 µM); in assay [5], more than 64 µg/mL; in the assay with Staphylococcus aureus [1], more than 64 µg/mL; against Escherichia coli [2], more than 64 µg/mL; against Pseudomonas aeruginosa [3], more than 64 µg/mL.
Consider `CCCCCCCCCCCCCCCC(=O)N(C)[C@@H](CO)CCC(=O)N[C@@H](C)C(=O)NCC(=O)N(C)[C@@H]1C(=O)N[C@@H](C)C(=O)N[C@H](C(=O)O)Cc2ccc(O)c(c2)-c2cc1ccc2O`, for which the MIC in assay [4] is 8 µg/mL (≈ 8.8 µM); against Staphylococcus aureus [6], 4 µg/mL (≈ 4.4 µM); in [5], 16 µg/mL (≈ 17.6 µM); in the assay with Staphylococcus aureus [1], 16 µg/mL (≈ 17.6 µM); against Escherichia coli [2] it was more than 64 µg/mL; against Pseudomonas aeruginosa [3] it was more than 64 µg/mL.
`CCCCCCCCCCCCCCCC(=O)N(C)[C@H](CO)C(=O)N[C@H](C)C(=O)NCC(=O)N(C)[C@@H]1C(=O)N[C@@H](C)C(=O)N[C@H](C(=O)O)Cc2ccc(O)c(c2)-c2cc1ccc2O` [ARYLOMYCIN C16]: the MIC is 16 µg/mL (≈ 18.2 µM) against Staphylococcus aureus [7]; 0.5 µg/mL (≈ 0.567 µM) in [4]; 8 µg/mL (≈ 9.08 µM) with Pseudomonas aeruginosa [8]; more than 64 µg/mL against Staphylococcus aureus [1]; more than 64 µg/mL with Escherichia coli [2]; more than 64 µg/mL in the assay on Pseudomonas aeruginosa [3].
For the compound `C[C@@H]1NC(=O)[C@@H](N(C)C(=O)CNC(=O)[C@@H](C)NC(=O)[C@@H](CO)N(C)C(=O)Cc2ccc3ccccc3c2)c2ccc(O)c(c2)-c2cc(ccc2O)C[C@@H](C(=O)O)NC1=O`, the MIC (in [4]; in the assay on Staphylococcus aureus [1]; with Escherichia coli [2]; in the assay with Pseudomonas aeruginosa [3]) was more than 64 µg/mL in each case.
As for `CCCCCCCCCCCCCCCC(=O)N[C@@H](CO)C(=O)N(C)[C@@H](C)C(=O)N(C)CC(=O)N(C)[C@@H]1C(=O)N[C@@H](C)C(=O)N[C@H](C(=O)O)Cc2ccc(O)c(c2)-c2cc1ccc2O`, the MIC (in [4]; in the assay on Staphylococcus aureus [1]; in the assay with Escherichia coli [2]; with Pseudomonas aeruginosa [3]) was more than 64 µg/mL throughout.
`CCc1ccc(-c2ccc(C(=O)N(C)[C@H](CO)C(=O)N[C@H](C)C(=O)NCC(=O)N(C)[C@@H]3C(=O)N[C@@H](C)C(=O)N[C@H](C(=O)O)Cc4ccc(O)c(c4)-c4cc3ccc4O)cc2)cc1`: the minimum inhibitory concentration (MIC) in assay [4] is 8 µg/mL (≈ 9.4 µM); with Staphylococcus aureus [6], 64 µg/mL (≈ 75.2 µM); against Escherichia coli [9], 16 µg/mL (≈ 18.8 µM); in [5] it was more than 64 µg/mL; against Staphylococcus aureus [1], more than 64 µg/mL; against Escherichia coli [2], more than 64 µg/mL. Besides, the minimal inhibitory concentration (MIC) in the assay with Pseudomonas aeruginosa [3] was more than 64 µg/mL.
`CCCCCCCCCCCCCCC(C)C(=O)N[C@@H](C)C(=O)NCC(=O)N(C)[C@@H]1C(=O)N[C@@H](C)C(=O)N[C@H](C(=O)O)Cc2ccc(O)c(c2)-c2cc1ccc2O` (mixture of isomers): the MIC in [4] was 8 µg/mL; in [5], more than 64 µg/mL; with Staphylococcus aureus [1] it was more than 64 µg/mL; in the assay with Escherichia coli [2] it was more than 64 µg/mL; in the assay with Pseudomonas aeruginosa [3], more than 64 µg/mL.
Turning to `CCCCCCCCCC(=O)N(C)[C@H](CO)C(=O)N[C@H](C)C(=O)NCC(=O)N(C)[C@@H]1C(=O)N[C@@H](C)C(=O)N[C@H](C(=O)O)Cc2ccc(O)c(c2)-c2cc1ccc2O`, the MIC in the assay with Staphylococcus aureus [1], against Escherichia coli [2] and in the assay with Pseudomonas aeruginosa [3] was more than 64 µg/mL in each case.
Take `CCCCCCCC(=O)N(C)[C@H](CO)C(=O)N[C@H](C)C(=O)NCC(=O)N(C)[C@@H]1C(=O)N[C@@H](C)C(=O)N[C@H](C(=O)O)Cc2ccc(O)c(c2)-c2cc1ccc2O`: the MIC in the assay with Staphylococcus aureus [1], in the assay with Escherichia coli [2] and against Pseudomonas aeruginosa [3] was more than 64 µg/mL each time.
Consider `CCCCCCCCCCCCCCCC(=O)N(C)[C@@H](CO)CC(=O)N[C@@H](C)C(=O)NCC(=O)N(C)[C@@H]1C(=O)N[C@@H](C)C(=O)N[C@H](C(=O)O)Cc2ccc(O)c(c2)-c2cc1ccc2O`, for which the MIC in [4] was 4 µg/mL (≈ 4.47 µM); in the assay on Staphylococcus aureus [6] it was 16 µg/mL (≈ 17.9 µM); in assay [5] it was 8 µg/mL (≈ 8.94 µM); against Staphylococcus aureus [1], 64 µg/mL (≈ 71.5 µM); with Escherichia coli [2] it was more than 64 µg/mL; against Pseudomonas aeruginosa [3] it was more than 64 µg/mL.
On to `CCCCCCCCCCc1ccc(C(=O)N(C)[C@H](CO)C(=O)N[C@H](C)C(=O)NCC(=O)N(C)[C@@H]2C(=O)N[C@@H](C)C(=O)N[C@H](C(=O)O)Cc3ccc(O)c(c3)-c3cc2ccc3O)cc1`, for which the minimal inhibitory concentration (MIC) in assay [4] is 0.5 µg/mL (≈ 0.564 µM); against Staphylococcus aureus [6], 4 µg/mL (≈ 4.51 µM); against Escherichia coli [9], 2 µg/mL (≈ 2.25 µM); with Pseudomonas aeruginosa [8], 16 µg/mL (≈ 18 µM); in assay [5], 16 µg/mL (≈ 18 µM); with Staphylococcus aureus [1], 32 µg/mL (≈ 36.1 µM). Further, the MIC against Escherichia coli [2] and against Pseudomonas aeruginosa [3] was more than 64 µg/mL each time.
